Source: patent US12509446B2, “FYN and VEGFR2 kinase inhibitors” (ROTTAPHARM BIOTECH S.R.L., priority 2019, dated 2025)
Where two headings read alike, the source gives them in different places.

Legend:
VEGFR2 [1] = molecular target: T1, VEGFR2 (Homo sapiens (Human), UniProt P35968); assay: In vitro VEGFR2 kinase activity assay (Eurofins Cerep); format: biochemical; settings: read-out: VEGFR2 KINASE INHIBITION IC50
How it was run: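 Contract biochemical kinase assay on human VEGFR2 with inhibitors at 10^−8 to 10^−5 M final (some re-tested from 10^−9 M). Activity expressed as percent of no-compound control; IC50 by non-linear regression of mean replicate inhibition curves.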

VEGFR2 [2] = molecular target: T1, VEGFR2; assay: ADP-Glo kinase assay at high ATP concentration (0.5 mM), VEGFR2; format: biochemical; settings: ATP 0.5 mM; read-out: VEGFR2 IC50 in the presence of high ATP concentration
Method: The inhibition of Fyn and VEGFR2 kinase activity was evaluated in the presence of a fixed ATP concentration (0.5 mM), near to the millimolar range present in cells. The assay was performed by The ADP-Glo™ Kinase Assay (Promega), monitoring ADP produced in the kinase reaction. Kinase reaction was performed in 10 μl, according to supplier indication, in a white 384-well plate.
Inhibitor solutions in DMSO/Kinase buffer and the kinase (Fyn 2.5 ng/μl and VEGFR2 0.5 ng/μl final concentration in assay) were pre-incubate 15 minutes at room temperature. The range of inhibitor concentrations was from 10^−10 M up to 10^−5 M (final concentration in assay). To start the reaction, a substrate/ATP mix (0.5 mM final concentration, corresponding to 10× ATP KM value) was added to each sample. After 60 minutes incubation at room temperature, ADP-Glo™ Reagent and Kinase Detection Reagent, added and incubated in sequence according to supplier indication, allowed to stop and develop the kinase reaction. The percentage of inhibition, calculated towards the enzymatic activity in the absence of test compound, and the corresponding inhibition curves were analyzed by non-linear curve fitting (GraphPad software, version 7 for Windows), allowing to calculate the IC50 value.

CDK2 = CDK2 (Homo sapiens (Human), UniProt P24941); assay: Kinase selectivity (Eurofins Cerep), CDK2; format: biochemical; settings: maximal concentration tested 10 μM
Method: (§1) The assays were performed in Eurofins Cerep (France). The concentration range of the compound under investigation was from 10^−9 M up to 10^−5 M final concentration.

AurA = AurA (Homo sapiens (Human), UniProt O14965); assay: Kinase selectivity (Eurofins Cerep), AurA; format: biochemical; settings: maximal concentration tested 10 μM
Method: as §1

AMPKa = assay: Kinase selectivity (Eurofins Cerep), AMPKa; format: biochemical, human; settings: maximal concentration tested 10 μM
Method: as §1

NF-kB = assay: Gene reporter (GR) assay, NF-kB activation after TNFα in JB6 Cl 41-5a (P+) cells; format: cell-based, murine; settings: TNFα 2 ng/ml, non toxic concentrations, read-out: Gene reporter (GR) inhibition IC50
How it was run: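 TNFα (2 ng/ml, 4 h) stimulation followed 1 h compound pre-treatment in NF-kB-luciferase-transfected mouse JB6 (P+) epithelial cells. Reporter luminescence and cell viability were read together, each condition in quadruplicate.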

[3] = molecular target: Fyn-NanoLuc fusion protein (Homo sapiens (Human), UniProt P06241); assay: NanoBRET intracellular target engagement of Fyn in HEK293 transfected cells; format: cell-based; settings: 2 hours treatment, tracer 0.33 μM, read-out: IC50 binding value towards the Fyn-NanoLuc fusion protein
Method: The NanoBRET™ TE intracellular kinase assay K-4 (Promega, #N2520) was used to determine the intracellular target engagement of Fyn kinase in HEK293 cells (ATCC®, Cat. CRL-1573) transiently transfected with Fyn-NanoLuc® fusion vector (Promega, #NV1411), therefore expressing the Fyn-NanoLuc© fusion protein. The tracer was used at the final concentration of 0.33 μM, and the treatment of cells with Compounds was performed for 2 hours. Luminescence values were measured at 450 nm and 610 nm (GloMax® Discover, Promega) and raw BRET ratio values for each sample were determined. Compounds that specifically engage the intracellular target protein-NanoLuc® fusion will result in a decrease in BRET signal and in lower BRET ratio values

human FynB = human FynB (Homo sapiens, UniProt P06241); assay: Inhibition of FynB-induced Tau(Y18)-phosphorylation in HEK293 cells; format: cell-based
Method: After 24 h, cells were transfected in order to over-express either constitutively active form of human FynB and Tau protein (isoform 0N4R), through an optimized Lipofectamine®3000 Transfection protocol (Life Technologies™). A non-transfected sample (negative control) was included in every experiment. Twenty-four hours from transfection, treatments of cells were performed by adding fresh medium containing diluent (DMSO 0.1% final concentration) or test compounds. The incubation was carried out for 6 or 24 hours at 37° C. with 5% CO2. At the end of the incubation, the medium was removed and cellular lysates, obtained by adding M-PER lysis/Protease/Phosphatase inhibitors cocktail, were transferred into Eppendorf tubes, sonicated and stored at −80° C. Protein content was measured by Bradford method. Lysates were analyzed either by customized ELISA assays for Tau phosphorylation (Tyrosine 18 residue—Fyn mediated) and Tau-Total amount determination.

VEGFR = VEGFR (Homo sapiens (Human), UniProt P35968); assay: Inhibition of VEGF-induced VEGFR (Y1175)-phosphorylation in HUVEC-C cells; format: cell-based; settings: starting from the concentration of 0.01 μM; VEGF 50 ng/ml
Method: HUVEC-C cells (Human Umbilical Vein Endothelial Cells from ATCC) were plated at 6×10^4 cells/well in 24 w microplates and grown adherent in medium F12K+0.1 mg/ml Heparin+0.05 mg/ml ECGS+10% FBS at 37° C. with 5% CO2. After 24 h, medium was removed and starvation was induced overnight in medium F12K+0.1 mg/ml Heparin+0.5% FBS (medium starvation). At the end of incubation, treatment of cells was performed by medium replacement and by adding fresh medium starvation containing or not diluent (DMSO 0.1% final concentration), or test compound (range 10^−8 M-10^−5 M). After 1 hour, VEGF stimuli (50 ng/ml final concentration) was added to each sample, with the exception of “basal-no stimulus” sample; plate was then incubated for 5 min at 37° C. with 5% CO2. At the end of the incubation, the medium was removed and cellular lysates, obtained by adding M-PER lysis/Protease/Phosphatase inhibitors cocktail. Then, lysates were transferred into Eppendorf tubes, sonicated and stored at −80° C.
Lysates were analyzed by Western blot for VEGFR phosphorylation (Tyrosine 1175) and total receptor amount determination. Densitometric analysis of sample lanes were performed by ImageQuant TL software (GE Healthcare Life Sciences). Each sample value was normalized by respective actin; resulting data were used to calculate inhibitory effect of compounds with respect to stimuli control (absence of inhibitor).

CFA induced hyperalgesia = assay: Complete Freund Adjuvant (CFA)-induced inflammatory pain in rats; format: in vivo, rat; settings: intra-dermal
[4] = Pharmacokinetics, oral route, mice; settings: mouse, in vivo, read-out: Absolute bioavailability
[5] = Pharmacokinetics, systemic routes, rats; format: in vivo

Chain of human FynB (P06241 2-537 limits assumed): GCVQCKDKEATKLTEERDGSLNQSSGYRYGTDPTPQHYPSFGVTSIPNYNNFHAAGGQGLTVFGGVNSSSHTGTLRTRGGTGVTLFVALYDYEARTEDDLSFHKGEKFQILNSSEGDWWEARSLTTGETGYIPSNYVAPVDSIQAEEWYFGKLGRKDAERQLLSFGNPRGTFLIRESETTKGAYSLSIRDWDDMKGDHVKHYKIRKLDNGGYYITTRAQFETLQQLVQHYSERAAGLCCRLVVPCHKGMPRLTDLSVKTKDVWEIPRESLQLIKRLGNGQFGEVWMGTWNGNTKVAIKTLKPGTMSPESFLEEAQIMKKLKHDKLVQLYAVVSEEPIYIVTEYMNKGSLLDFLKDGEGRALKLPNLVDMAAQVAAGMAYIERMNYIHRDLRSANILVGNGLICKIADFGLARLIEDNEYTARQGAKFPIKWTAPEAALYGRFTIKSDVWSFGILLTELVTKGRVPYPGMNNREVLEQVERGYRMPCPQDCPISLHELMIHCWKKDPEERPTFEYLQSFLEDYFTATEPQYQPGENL
T1 sequence (P35968 20-1356): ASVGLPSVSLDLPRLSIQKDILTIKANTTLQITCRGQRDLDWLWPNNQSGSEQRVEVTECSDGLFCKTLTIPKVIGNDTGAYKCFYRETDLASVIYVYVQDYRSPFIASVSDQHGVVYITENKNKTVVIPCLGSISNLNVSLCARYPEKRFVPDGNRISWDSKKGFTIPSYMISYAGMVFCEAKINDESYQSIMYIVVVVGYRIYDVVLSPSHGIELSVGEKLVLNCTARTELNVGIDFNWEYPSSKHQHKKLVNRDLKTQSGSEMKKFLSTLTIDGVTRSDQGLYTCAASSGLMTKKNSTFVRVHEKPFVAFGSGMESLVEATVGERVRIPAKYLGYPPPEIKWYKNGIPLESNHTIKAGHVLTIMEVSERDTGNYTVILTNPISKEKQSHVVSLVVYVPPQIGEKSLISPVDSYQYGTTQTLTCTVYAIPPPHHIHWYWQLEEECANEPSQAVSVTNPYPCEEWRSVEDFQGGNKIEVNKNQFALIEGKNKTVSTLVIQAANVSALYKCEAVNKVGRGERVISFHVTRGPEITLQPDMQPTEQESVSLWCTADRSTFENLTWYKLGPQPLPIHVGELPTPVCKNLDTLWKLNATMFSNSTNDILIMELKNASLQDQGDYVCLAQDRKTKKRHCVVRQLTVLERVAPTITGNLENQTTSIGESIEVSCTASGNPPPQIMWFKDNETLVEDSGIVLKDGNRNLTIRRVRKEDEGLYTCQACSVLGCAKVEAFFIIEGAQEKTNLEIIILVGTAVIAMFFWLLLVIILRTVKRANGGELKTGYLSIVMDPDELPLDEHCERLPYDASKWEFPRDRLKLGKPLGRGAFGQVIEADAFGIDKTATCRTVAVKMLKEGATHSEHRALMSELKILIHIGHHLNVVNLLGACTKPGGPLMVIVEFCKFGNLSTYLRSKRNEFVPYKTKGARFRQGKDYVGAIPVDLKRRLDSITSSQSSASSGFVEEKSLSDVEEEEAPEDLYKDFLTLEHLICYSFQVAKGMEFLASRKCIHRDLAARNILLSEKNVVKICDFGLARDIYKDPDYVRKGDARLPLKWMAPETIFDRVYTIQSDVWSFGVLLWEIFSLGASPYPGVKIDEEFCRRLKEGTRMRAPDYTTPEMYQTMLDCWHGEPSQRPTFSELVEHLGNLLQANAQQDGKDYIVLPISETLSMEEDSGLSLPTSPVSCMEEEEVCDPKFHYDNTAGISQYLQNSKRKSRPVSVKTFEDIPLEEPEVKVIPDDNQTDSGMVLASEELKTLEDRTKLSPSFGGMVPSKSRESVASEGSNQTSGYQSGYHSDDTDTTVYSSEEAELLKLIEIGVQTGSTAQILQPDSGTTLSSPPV
Chain of Fyn-NanoLuc fusion protein (P06241 whole entry, the tested form may be a part): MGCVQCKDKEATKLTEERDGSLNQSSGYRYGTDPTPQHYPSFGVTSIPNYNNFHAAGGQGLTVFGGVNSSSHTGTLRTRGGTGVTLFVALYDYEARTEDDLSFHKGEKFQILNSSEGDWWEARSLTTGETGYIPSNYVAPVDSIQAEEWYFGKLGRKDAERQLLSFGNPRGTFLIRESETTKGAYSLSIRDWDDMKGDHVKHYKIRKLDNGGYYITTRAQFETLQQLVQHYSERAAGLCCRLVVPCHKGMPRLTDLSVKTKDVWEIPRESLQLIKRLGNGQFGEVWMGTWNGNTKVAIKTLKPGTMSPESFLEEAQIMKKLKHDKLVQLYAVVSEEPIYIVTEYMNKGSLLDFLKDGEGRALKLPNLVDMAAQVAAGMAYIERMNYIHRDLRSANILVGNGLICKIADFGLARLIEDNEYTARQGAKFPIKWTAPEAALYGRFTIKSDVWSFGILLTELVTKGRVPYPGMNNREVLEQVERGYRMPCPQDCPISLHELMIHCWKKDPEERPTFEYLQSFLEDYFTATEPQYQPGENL
Chain of VEGFR (P35968 20-1356): as the sequence (P35968 20-1356) above
Chain of AurA (O14965 whole entry): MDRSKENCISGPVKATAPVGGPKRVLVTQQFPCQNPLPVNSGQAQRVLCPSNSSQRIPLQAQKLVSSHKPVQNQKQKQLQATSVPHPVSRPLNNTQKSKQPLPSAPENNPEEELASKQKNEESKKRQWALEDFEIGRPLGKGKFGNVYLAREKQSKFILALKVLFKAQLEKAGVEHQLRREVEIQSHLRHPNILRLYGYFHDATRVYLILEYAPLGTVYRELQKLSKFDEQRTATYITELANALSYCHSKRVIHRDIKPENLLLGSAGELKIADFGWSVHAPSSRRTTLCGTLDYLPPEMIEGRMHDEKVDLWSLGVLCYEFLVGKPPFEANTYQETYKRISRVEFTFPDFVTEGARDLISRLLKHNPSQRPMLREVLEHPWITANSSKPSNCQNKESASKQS

Cc1ccc(NC(=O)c2cccc(C(F)(F)F)c2)cc1CCc1cc(Nc2cnccn2)[nH]n1 [Compound 3, N-(4-methyl-3-(2-(5-(pyrazin-2-ylamino)-1H-pyrazol-3-yl)ethyl)phenyl)-3-(trifluoromethyl)benzamide]
IC50 (VEGFR2 [1]): 7 nM | IC50 (VEGFR2 [2]): 58 nM | IC50 (CDK2): > 10000 nM | IC50 (AurA): > 10000 nM | IC50 (AMPKa): > 10000 nM | IC50 (NF-kB; Mus musculus, JB6 Cl 41-5a): < 250 nM | IC50 (NF-kB): 236 nM | IC50 [3]: 1500 nM | Effect on Tau-protein total amount (human FynB): Moderate not significant effect | Mean percentage of inhibition of Tau(Y18)-phosphorylation (human FynB; after 24 hours of treatment): 95% | IC50 (human FynB; read-out: Inhibition of FynB-induced Tau(Y18)-phosphorylation IC50, after 6 hours of treatment): 131 nM | Inhibitory activity on VEGFR-phosphorylation at Y1175 residue (VEGFR): complete inhibitory activity | Effect on normal nociception in naïve animals (CFA induced hyperalgesia; 3 μM (140 ng/paw), no CFA challenge): did not modify the normal nociception | Effect on pain behavior in CFA inflamed animals (mechanical pain threshold) (CFA induced hyperalgesia; maximal concentration of 3 μM (140 ng/paw)): completely reverted the pain behavior | bioavailability [4]: ~12% | Metabolism in rats [5]: lack of important metabolism | bioavailability ([5]; rat, in vivo, oral route, read-out: Absolute bioavailability): ~6%
